Measurements reported in paper PMC5451387, “Structural insights into the elevator-like mechanism of the sodium/citrate symporter CitS” (Scientific Reports, 2017).

Biological target: T1, KpCitS (Klebsiella pneumoniae, UniProt P31602)
T1 construct: gene citS; homodimer; TM7-TM8 loop not modelled
T1 sequence (P31602 1-446): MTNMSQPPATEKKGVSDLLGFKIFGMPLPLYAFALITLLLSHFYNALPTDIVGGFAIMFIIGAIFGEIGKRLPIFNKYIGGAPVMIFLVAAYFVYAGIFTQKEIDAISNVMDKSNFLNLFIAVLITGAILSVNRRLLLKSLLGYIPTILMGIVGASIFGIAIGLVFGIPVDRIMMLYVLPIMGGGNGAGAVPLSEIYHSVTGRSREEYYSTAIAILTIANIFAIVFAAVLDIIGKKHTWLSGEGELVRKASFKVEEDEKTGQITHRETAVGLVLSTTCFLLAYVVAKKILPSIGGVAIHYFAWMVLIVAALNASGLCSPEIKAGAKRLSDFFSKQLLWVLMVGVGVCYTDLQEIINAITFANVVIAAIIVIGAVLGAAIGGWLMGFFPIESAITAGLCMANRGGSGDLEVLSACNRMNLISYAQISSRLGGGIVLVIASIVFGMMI
Test: X-ray crystal structures, […]-4.[…] A
Assay type: binding
Conditions: sodium-containing buffer; bound at the transport-domain site in outward-facing and asymmetric forms; one citrate per protomer

## O=C(O)CC(O)(CC(=O)O)C(=O)O [citrate]
  X-ray crystal structures, 3.5-4.0 A: Each KpCitS protomer binds one molecule of citrate in the outward-facing and asymmetric conformations
